# Measured values taken from patent publication US20180201592A1, “2-AMINO-1,3,4-THIADIAZINE AND 2-AMINO-1,3,4-OXADIAZINE BASED ANTIFUNGAL AGENTS” (F2G Limited, priority 2015, published 2018).
# Like-named read-outs stand apart in the source and are kept apart here.
# Legend:
# [1] = tested on: C. parapsilosis; assay: Minimum inhibitory concentration, RPMI medium; format: cell-based; conditions: banded MIC grade; for MIC: Lodderomyces parapsilosis, RPMI media
# Protocol: (§1) The compound was dissolved in DMSO to give a solution containing 5 mg/mL. Tubes were stored at −20° C. until required. On the day of testing thawed solutions were vortex mixed to ensure homogeneity. 30 μL of solution was removed and added to 570 μL of sterile water in a separate sterile Eppendorf. The thoroughly mixed solution was used to prepare a series of doubling dilutions in water, in a deep well plate. Thirteen replicate plates were prepared using a Minitrak by aspirating 20 μL from each well into eleven clear polystyrene 96 well plates. Assays were also performed in RPMI medium (Roswell Park Memorial Media 1640). To perform MIC tests in this medium, dilutions of compounds are prepared in microtitre plates as described above. […] All plates were incubated for 24-48 hrs at 35° C. Growth was assessed by monitoring the optical density at 485 nm for each well. […] The following organisms were tested: […]
# [2] = tested on: C. tropicalis; assay: Minimum inhibitory concentration, RPMI medium; format: cell-based; conditions: banded MIC grade
# Protocol: as §1
# [3] = tested on: C. albicans; assay: Minimum inhibitory concentration, RPMI medium; format: cell-based; conditions: banded MIC grade; for MIC: Candida albicans, RPMI media
# Protocol: as §1
# [4] = tested on: Aspergillus fumigatus; assay: Minimum inhibitory concentration, YAG medium; format: cell-based; conditions: banded MIC grade
# Protocol: (§2) Between 1 and 5 mgs of compound were accurately weighed out into a sterile Eppendorf tube. The compound was dissolved in DMSO to give a solution containing 5 mg/mL. Tubes were stored at −20° C. until required.
# (§3) On the day of testing thawed solutions were vortex mixed to ensure homogeneity. 30 μL of solution was removed and added to 570 μL of sterile water in a separate sterile Eppendorf. The thoroughly mixed solution was used to prepare a series of doubling dilutions in water, in a deep well plate. Thirteen replicate plates were prepared using a Minitrak by aspirating 20 μL from each well into eleven clear polystyrene 96 well plates.
# (§4) Spores of Aspergillus spp. (Aspergillus fumigatus [two strains], Aspergillus terreus [two strains], Aspergillus niger and Aspergillus flavus) were harvested from cultures grown on Sabarauds agar for 5 days, and resuspended in PBS/Tween 80 to approx 1×10^7 cfu/mL. Each organism suspension was diluted in YAG medium (1% glucose, 1% ammonium chloride and 0.5% yeast extract) to 0.5-2×10^4cfu/mL. 80 μL of an organism suspension was added to each well of the plate containing drug dilutions.
# (§5) This typically produced MIC plates with a drug range 50-0.05 mg/L and organism inocula of 1-2×10^4 cfu/mL for Aspergillus spp. All plates were incubated for 24 hrs at 35° C. Growth was assessed by monitoring the optical density at 485 nm for each well. The MIC of a compound is the lowest drug concentration that inhibits growth of an organism by >70% compared with a drug free control. MICs are recorded as mg/L. In cases where the MIC of an organism is […] the MIC is repeated using a concentration range of 0.5-0.0005 mg/L.
# [5] = tested on: A. terreus 49; assay: Minimum inhibitory concentration, YAG medium; format: cell-based, Aspergillus terreus; conditions: banded MIC grade
# Protocol: (§6) The compound was dissolved in DMSO to give a solution containing 5 mg/mL. Tubes were stored at −20° C. until required. On the day of testing thawed solutions were vortex mixed to ensure homogeneity. 30 μL of solution was removed and added to 570 μL of sterile water in a separate sterile Eppendorf. The thoroughly mixed solution was used to prepare a series of doubling dilutions in water, in a deep well plate. Thirteen replicate plates were prepared using a Minitrak by aspirating 20 μL from each well into eleven clear polystyrene 96 well plates. Spores of Aspergillus spp. […] All plates were incubated for 24 hrs at 35° C. Growth was assessed by monitoring the optical density at 485 nm for each well. […] MICs are recorded as mg/L.
# [6] = tested on: Aspergillus flavus; assay: Minimum inhibitory concentration, YAG medium; format: cell-based; conditions: banded MIC grade
# Protocol: as §6
# [7] = tested on: Aspergillus niger; assay: Minimum inhibitory concentration, YAG medium; format: cell-based; conditions: banded MIC grade
# Protocol: as §6
# [8] = tested on: Aspergillus terreus; assay: Minimum inhibitory concentration, YAG medium; format: cell-based; conditions: banded MIC grade
# Protocol: as §6
# [9] = tested on: A. fumigatus 210; assay: Minimum inhibitory concentration, YAG medium; format: cell-based, Aspergillus fumigatus; conditions: banded MIC grade
# Protocol: as §2, §3, §4, §5
SMILES,MIC ([1]; read-out: MIC grade C. PARAPSILOSIS),"MIC ([1]; read-out: MIC grade, C. PARAPSILOSIS, RPMI media)","MIC ([2]; Candida tropicalis, RPMI media)",MIC ([3]; read-out: MIC grade C. ALBICANS),"MIC ([3]; read-out: MIC grade, C. ALBICANS, RPMI media)","MIC ([4]; Aspergillus fumigatus, YAG media)","MIC ([5]; Aspergillus terreus, 49, YAG media)","MIC ([6]; Aspergillus flavus, YAG media)","MIC ([7]; Aspergillus niger, YAG media)","MIC ([8]; Aspergillus terreus, YAG media)","MIC ([9]; Aspergillus fumigatus, 210, YAG media)","MIC grade, C. PARAPSILOSIS, RPMI media [1]","MIC grade, C. TROPICALIS, RPMI media [2]","MIC grade, C. ALBICANS, RPMI media [3]","MIC grade, A. FUMIGATUS, YAG media [4]","MIC grade, A. TERREUS 49, YAG media [5]","MIC grade, A. FLAVUS, YAG media [6]","MIC grade, A. NIGER, YAG media [7]","MIC grade, A. TERREUS, YAG media [8]","MIC grade, A. FUMIGATUS 210, YAG media [9]"
"CCCCOc1ccc(C2=CSC(N)=NN2C)cc1 [5-(4-butoxyphenyl)-4-methyl-1,3,4-thiadiazin-2-amine]",< 1 µg/mL,1 to 5 µg/mL,1 to 5 µg/mL,1 to 5 µg/mL,≥ 20 µg/mL,< 0.2 µg/mL,0.2 to 1 µg/mL,< 0.2 µg/mL,< 0.2 µg/mL,0.2 to 1 µg/mL,< 0.2 µg/mL,,,,,,,,,
COc1ccc(CCCOCCC2=NN=C(N)SC2)cc1,,,,,,,,,,,,3 (3: 1-5 mg/L),2 (2: 5-20 mg/L),2 (2: 5-20 mg/L),2 (2: 1-5 mg/L),2 (2: 1-5 mg/L),2 (2: 1-5 mg/L),2 (2: 1-5 mg/L),2 (2: 1-5 mg/L),2 (2: 1-5 mg/L)
CCCCC/C=C/C1=NN=C(N)SC1,,,,,,,,,,,,2 (2: 5-20 mg/L),1 (1: ≥20 mg/L),2 (2: 5-20 mg/L),2 (2: 1-5 mg/L),2 (2: 1-5 mg/L),2 (2: 1-5 mg/L),2 (2: 1-5 mg/L),2 (2: 1-5 mg/L),2 (2: 1-5 mg/L)
CCC(=O)OCC1=NN=C(N)SC1,,,,,,,,,,,,3 (3: 1-5 mg/L),2 (2: 5-20 mg/L),1 (1: ≥20 mg/L),3 (3: 0.2-1 mg/L),3 (3: 0.2-1 mg/L),3 (3: 0.2-1 mg/L),3 (3: 0.2-1 mg/L),3 (3: 0.2-1 mg/L),3 (3: 0.2-1 mg/L)
CCOC(=O)CC1=NN=C(N)SC1,,,,,,,,,,,,3 (3: 1-5 mg/L),2 (2: 5-20 mg/L),3 (3: 1-5 mg/L),2 (2: 1-5 mg/L),3 (3: 0.2-1 mg/L),2 (2: 1-5 mg/L),3 (3: 0.2-1 mg/L),3 (3: 0.2-1 mg/L),2 (2: 1-5 mg/L)
CCCCOCCC1=NN=C(N)SC1,,,,,,,,,,,,4 (4: <1 mg/L),2 (2: 5-20 mg/L),1 (1: ≥20 mg/L),4 (4: <0.2 mg/L),4 (4: <0.2 mg/L),3 (3: 0.2-1 mg/L),4 (4: <0.2 mg/L),4 (4: <0.2 mg/L),4 (4: <0.2 mg/L)
